In US6825205B2 (priority 2002, dated 2004):

Legend:
[1] = biological target: μ opioid receptor (μ membrane protein) (Homo sapiens, UniProt P35372); assay: biochemical
[2] = rat, in vivo
[3] = in vivo; conditions: Sprague-Dawley, rat, ip, 10 mg/kg

Sequence of μ opioid receptor (μ membrane protein) (P35372 whole entry, species assumed): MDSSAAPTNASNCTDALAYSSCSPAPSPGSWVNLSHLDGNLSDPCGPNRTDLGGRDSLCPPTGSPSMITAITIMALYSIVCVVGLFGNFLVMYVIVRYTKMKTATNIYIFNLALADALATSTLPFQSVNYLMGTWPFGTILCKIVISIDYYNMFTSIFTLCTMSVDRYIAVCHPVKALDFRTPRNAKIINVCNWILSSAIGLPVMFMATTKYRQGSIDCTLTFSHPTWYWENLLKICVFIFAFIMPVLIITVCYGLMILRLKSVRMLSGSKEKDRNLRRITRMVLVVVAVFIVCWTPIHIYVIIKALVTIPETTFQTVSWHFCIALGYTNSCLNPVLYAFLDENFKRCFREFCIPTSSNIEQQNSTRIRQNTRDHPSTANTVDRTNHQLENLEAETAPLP

With `C[N+]1(C)CC[C@]23c4c5ccc(O)c4O[C@H]2C(=O)CC[C@H]3[C@H]1C5` [N-methylhydromorphone, N-methylhydromorphonium iodide] the EC50 [1] was 817 ± 83 nM, the “GTP-γ-S Activity/Efficacy % DAMGO” value [1] was 29 ± 1 % DAMGO and the “Penetration of the CNS / blood-brain barrier” value [2] was “does not penetrate the CNS”. The Kp [3] was 0.02 ± 0.01.
